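Test compounds were applied to cells in 96-well plates for 48 hours at 5 doses. GI50 is the concentration that inhibits growth by half. Definition used: TGI = concentration required for complete inhibition of growth.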 Some results are limits rather than exact numbers.

Test systems include SF-295 CNS; IGROV1 ovarian; K-562 leukemia; OVCAR-8 ovarian; TK-10 renal; U251 CNS; SK-MEL-5 melanoma; SR leukemia; MALME-3M melanoma; HCT-15 colon.
What all share (assay): NCI-60 cell line screen, 48 h

As for `COC(=O)[C@]12CC[C@@H](C)[C@H](C)[C@@H]1C1=CC[C@@H]3[C@@]4(C)C[C@@H](OC(C)=O)[C@H](O)[C@@](C)(COC(C)=O)[C@@H]4[C@H](O)C[C@@]3(C)[C@]1(C)CC2`, the GI50 in the experiment on SF-295 CNS is 1.82 µM; with IGROV1 ovarian it was 1.87 µM; in the experiment on K-562 leukemia, 2.33 µM; with OVCAR-8 ovarian it was 2.36 µM; in the experiment with TK-10 renal, 2.68 µM; in the experiment on U251 CNS, 1.87 µM. Also, the GI50 with SK-MEL-5 melanoma is 1.78 µM; in the experiment with SR leukemia it was 1.72 µM; in the experiment on MALME-3M melanoma it was 2.36 µM; in the experiment with HCT-15 colon it was 2.51 µM. Besides, the TGI with SF-295 CNS came out at 4.07 µM; in the experiment with IGROV1 ovarian, 4.81 µM; in the experiment on K-562 leukemia, 6.06 µM; in the experiment with OVCAR-8 ovarian it was 5.91 µM; in the experiment on TK-10 renal, 8.97 µM; in the experiment with U251 CNS it was 4.01 µM. Besides, the TGI in the experiment on SK-MEL-5 melanoma is 3.66 µM; in the experiment with SR leukemia, 4.31 µM; in the experiment on MALME-3M melanoma, 6.25 µM; in the experiment on HCT-15 colon, 9.01 µM.
Regarding `CC(C)(C)C#CC1=C(Br)C(=O)OC1`, the GI50 in the experiment on SF-295 CNS was 6.9 µM; in the experiment with IGROV1 ovarian, 4.97 µM; in the experiment on K-562 leukemia, 0.841 µM; in the experiment on OVCAR-8 ovarian, 2.54 µM; in the experiment with TK-10 renal, 0.36 µM; in the experiment on U251 CNS it was 0.997 µM. The GI50 was above 100 µM in the experiment with SK-MEL-5 melanoma, above 100 µM in the experiment with SR leukemia, 2.08 µM in the experiment with MALME-3M melanoma and 1.6 µM in the experiment on HCT-15 colon. For the same molecule, the TGI was 18.2 µM with SF-295 CNS; 23.2 µM in the experiment on IGROV1 ovarian; 12.7 µM in the experiment on OVCAR-8 ovarian; 2.26 µM with TK-10 renal; above 36.5 µM in the experiment on U251 CNS; above 100 µM with SK-MEL-5 melanoma. Moreover, the TGI was above 100 µM with SR leukemia, 4.91 µM with MALME-3M melanoma and above 22.3 µM with HCT-15 colon.
On to `CC(C)(C)C[C@H]1NC(C(=O)NCC[C@H](O)CO)[C@H](c2cccc(Cl)c2)[C@@]12C(=O)Nc1cc(Cl)c(F)cc12` (some centres undefined), for which the GI50 in the experiment with SF-295 CNS is 13.4 µM; in the experiment on IGROV1 ovarian it was 4.08 µM; in the experiment on K-562 leukemia, 14.8 µM; in the experiment on OVCAR-8 ovarian, 18.6 µM; with TK-10 renal, 19.2 µM; in the experiment with U251 CNS it was 15 µM. The GI50 with SK-MEL-5 melanoma was 6.73 µM; with SR leukemia it was 1.83 µM; in the experiment with MALME-3M melanoma it was 0.866 µM; in the experiment on HCT-15 colon it was 17.8 µM. The TGI in the experiment with SF-295 CNS amounted to 28.1 µM; with IGROV1 ovarian, 21.1 µM; with K-562 leukemia, 43.6 µM; in the experiment on OVCAR-8 ovarian, 39.1 µM; with TK-10 renal, 39.5 µM; in the experiment on U251 CNS it was 30.5 µM. Moreover, the TGI with SK-MEL-5 melanoma is 20 µM; in the experiment with SR leukemia it was 10.1 µM; in the experiment with MALME-3M melanoma, 11.8 µM; in the experiment on HCT-15 colon, 37.5 µM.
In the case of `CCCCOc1ccc(NC(N)=Nc2ccc(Cl)cc2)cc1`, the TGI with SF-295 CNS came to 6.34 µM; with IGROV1 ovarian, 21.3 µM; in the experiment with K-562 leukemia, 11.6 µM; in the experiment on OVCAR-8 ovarian, 25 µM; in the experiment on TK-10 renal, 18 µM; with U251 CNS it was 21.5 µM. Besides, the TGI worked out at 2.1 µM in the experiment with SK-MEL-5 melanoma, 47.6 µM in the experiment on SR leukemia, 8.34 µM in the experiment on MALME-3M melanoma and 23.1 µM with HCT-15 colon.

Source of the values: PubChem BioAssay (NCI).
